In article PMC10897015, “Investigation of anti-nociceptive, anti-inflammatory potential and ADMET studies of pure compounds isolated from Isodon rugosus Wall. ex Benth” (Frontiers in Pharmacology, 2024):
Values joined by “and” are separate entries in the source; they are usually repeats but may differ in a detail not shown here. Identical values can stand only once. Marks after values point to notes of the source that are not given here.

Experiments:
5-LOX = molecular target: T1, 5-LOX (Glycine max, UniProt P08170); assay: Lipoxygenase (5-LOX) inhibitory activity; assay type: biochemical; conditions: for inhibition at 62.5 µg/mL: read-out: % inhibition 5-LOX (mean ± SEM), 62.5 µg/ml; for inhibition at 250 µg/mL: read-out: % inhibition 5-LOX (mean ± SEM), 250 µg/ml; for inhibition at 500 µg/mL: read-out: % inhibition 5-LOX (mean ± SEM), 500 µg/ml; for inhibition at 1000 µg/mL: read-out: % inhibition 5-LOX (mean ± SEM), 1000 µg/ml
T1 sequence (P08170 1-839): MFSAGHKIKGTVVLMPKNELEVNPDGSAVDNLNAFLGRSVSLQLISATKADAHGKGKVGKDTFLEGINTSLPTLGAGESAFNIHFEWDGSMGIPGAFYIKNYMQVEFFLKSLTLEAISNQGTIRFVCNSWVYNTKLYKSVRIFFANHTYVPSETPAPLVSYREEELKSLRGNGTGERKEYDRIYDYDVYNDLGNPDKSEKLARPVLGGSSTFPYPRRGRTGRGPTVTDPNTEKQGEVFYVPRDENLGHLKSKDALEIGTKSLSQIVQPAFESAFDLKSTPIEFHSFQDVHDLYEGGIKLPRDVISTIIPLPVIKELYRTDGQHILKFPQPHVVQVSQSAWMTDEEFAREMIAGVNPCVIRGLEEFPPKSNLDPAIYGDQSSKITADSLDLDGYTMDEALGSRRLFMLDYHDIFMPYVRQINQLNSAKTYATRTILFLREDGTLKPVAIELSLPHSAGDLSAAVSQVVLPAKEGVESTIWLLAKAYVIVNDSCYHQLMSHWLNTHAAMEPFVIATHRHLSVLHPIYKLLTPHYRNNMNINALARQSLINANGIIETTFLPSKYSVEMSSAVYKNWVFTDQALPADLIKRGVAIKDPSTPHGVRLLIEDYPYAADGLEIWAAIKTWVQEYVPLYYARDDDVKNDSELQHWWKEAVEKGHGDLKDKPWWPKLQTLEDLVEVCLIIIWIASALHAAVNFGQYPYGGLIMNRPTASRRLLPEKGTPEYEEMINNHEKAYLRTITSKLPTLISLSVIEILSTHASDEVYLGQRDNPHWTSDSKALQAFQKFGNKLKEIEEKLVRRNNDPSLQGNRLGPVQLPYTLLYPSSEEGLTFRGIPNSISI
Description: The enzyme solution with a concentration of 10,000 U/ml was prepared. […] A solution (80 mM) of linoleic acid (substrate) was made. Likewise, a 50 mM phosphate buffer solution with a pH of 6.3 was prepared. The substrate, enzyme, and buffer were combined in equal proportions, each in a 2 ml volume. […] The inhibition percentage was determined by comparing the absorbance of the test samples with that of the positive control.

Swiss albino mice [1] = assay: Acetic acid-induced writhing test; assay type: in vivo; conditions: for Writhes, individual values: single animals; for % analgesic activity (writhing inhibition) / Mean writhes: oral
Description: An anti-nociceptive assessment was performed on Swiss albino mice of both sexes, sourced from the National Institute of Health, Islamabad, Pakistan. […] Mice of either sex were divided into different groups, with five mice in each group. The test samples were carefully administered orally, with doses of 250, 500, 1000, and 2000 mg/kg.
I. rugosus was evaluated for its analgesic potential through an acetic acid-induced writhing test. Oral administration of the test samples was carried out using specified doses. After 30 min of interval, 10 ml/kg of acetic acid (0.6%) was injected into the mice. Group I served as the control and received 0.5% Tween-80 (3 ml/kg), group II received diclofenac sodium (10 mg/kg), and groups III and IV received test compounds. The count of writhes was recorded between 5 and 30 min, following the i/p injection of acetic acid ([Franzotti et al., 2000]).

Swiss albino mice [2] = assay: Hot plate test with opioid receptor involvement; assay type: in vivo; conditions: for Reaction time on hot plate, individual values: single animals; for Reaction time on the hot plate: compounds 50 mg/kg, Mor 5 mg/kg, Nal 1 mg/kg
Swiss albino mice [3] = assay: Hot plate test, involvement of adrenergic receptors; assay type: in vivo; conditions: single animals
Description: The analgesic effects of the isolated compounds were measured using the hot plate method at a monitored temperature of 55 ± 0.2°C. The Swiss albino mice were positioned on the heated surface of the hot plate, and the period from placement to the onset of licking their hind paws or starting jump movements was noted as the response latency (thermal reactions). The test compounds were injected intraperitoneally. […] The animal models were checked for thermal reactions at various time intervals after sample administration.
The outcomes of the positive control and tested compounds were compared in animals pretreated with yohimbine. […] Additionally, clonidine at a dose of 3 μg/kg was intravenously administered. The animals were then subjected to the hot plate method, as reported before.

## O=C(O)C=Cc1ccc(O)c(O)c1 [Compound 1, 3,4-dihydroxy-cinnamic acid]
5-LOX
  inhibition at 62.5 µg/mL: 59.4 ± 0.65%
  inhibition at 250 µg/mL: 66.9 ± 1.04%
  inhibition at 500 µg/mL: 71.8 ± 0.55%
  inhibition at 1000 µg/mL: 77 ± 1.49%
Swiss albino mice [1]; 10mg, listed as Comp 1
  Writhes, individual values: 60 and 58.9 and 55.1
Swiss albino mice [1]; 20mg, listed as Comp 1
  Writhes, individual values: 50.1 and 48.2 and 49.71
Swiss albino mice [1]; 25mg, listed as Comp 1
  Writhes, individual values: 45.64 and 46.56 and 47.8
Swiss albino mice [1]; 50mg, listed as Comp 1
  Writhes, individual values: 22.1 and 23.29 and 24.51
Swiss albino mice [1]; dose 10 mg/kg
  % analgesic activity (writhing inhibition): 05.10% and 05.10^ns %
Swiss albino mice [1]; dose 20 mg/kg
  % analgesic activity (writhing inhibition): 19.88% and 19.88^ns %
  Mean writhes: 49.33 ± 0.87
Swiss albino mice [1]; dose 20 mg/kg, listed as Comp 1, 20 mg/kg
  Mean writhes: 49.3367
Swiss albino mice [1]; dose 25 mg/kg
  % analgesic activity (writhing inhibition): 24.78%
  Mean writhes: 46.67 ± 0.87
Swiss albino mice [1]; dose 25 mg/kg, listed as Comp 1, 25 mg/kg
  Mean writhes: 46.6667
Swiss albino mice [1]; dose 50 mg/kg
  % analgesic activity (writhing inhibition): 62% and 61.90%
  Mean writhes: 23.30 ± 0.62
Swiss albino mice [1]; dose 50 mg/kg, listed as Comp 1, 50 mg/kg
  Mean writhes: 23.3
Swiss albino mice [2]; at 15, listed as Comp-1
  Reaction time on hot plate, individual values: 8.02 and 7.34 and 9.3
Swiss albino mice [2]; at 30, listed as Comp-1
  Reaction time on hot plate, individual values: 7.19 and 7.2 and 7.18
Swiss albino mice [2]; at 45, listed as Comp-1
  Reaction time on hot plate, individual values: 6.4 and 7.3 and 6.26
Swiss albino mice [2]; at 60, listed as Comp-1
  Reaction time on hot plate, individual values: 8.1 and 9.57 and 7.46
Swiss albino mice [2]; at 90, listed as Comp-1
  Reaction time on hot plate, individual values: 6.12 and 7.38 and 8.02
Swiss albino mice [2]; at 15 min
  Reaction time on the hot plate: 08.22 ± 0.07 s
Swiss albino mice [2]; at 15 min, listed as Comp-1
  Reaction time on the hot plate: 8.22 s
Swiss albino mice [2]; at 15 min, listed as compound 1
  Reaction time on the hot plate: 08.22 ± 0.07 s
Swiss albino mice [2]; at 30 min
  Reaction time on the hot plate: 07.19 ± 0.08 s
Swiss albino mice [2]; at 30 min, listed as Comp-1
  Reaction time on the hot plate: 7.19 s
Swiss albino mice [2]; at 30 min, listed as compound 1
  Reaction time on the hot plate: 07.19 ± 0.08 s
Swiss albino mice [2]; at 45 min
  Reaction time on the hot plate: 6.65 ± 0.05 s
Swiss albino mice [2]; at 45 min, listed as Comp-1
  Reaction time on the hot plate: 6.653 s
Swiss albino mice [2]; at 45 min, listed as compound 1
  Reaction time on the hot plate: 6.65 ± 0.05 s
Swiss albino mice [2]; at 60 min
  Reaction time on the hot plate: 8.38 ± 0.41 s
Swiss albino mice [2]; at 60 min, listed as Comp-1
  Reaction time on the hot plate: 8.377 s
Swiss albino mice [2]; at 60 min, listed as compound 1
  Reaction time on the hot plate: 8.38 ± 0.41 s
Swiss albino mice [2]; at 90 min
  Reaction time on the hot plate: 7.17 ± 0.57 s
Swiss albino mice [2]; at 90 min, listed as Comp-1
  Reaction time on the hot plate: 7.173 s
Swiss albino mice [2]; at 90 min, listed as compound 1
  Reaction time on the hot plate: 7.17 ± 0.57 s
Swiss albino mice [3]; 30 Minutes
  Hot plate analysis (adrenergic), individual values: 4.43 and 5.1 and 6.1
Swiss albino mice [3]; 45 Minutes
  Hot plate analysis (adrenergic), individual values: 6.87 and 5.78 and 7.3
Swiss albino mice [3]; 15 minutes
  Hot plate analysis (adrenergic), individual values: 6.2 and 4.27 and 5.81
Swiss albino mice [3]; 60 minutes
  Hot plate analysis (adrenergic), individual values: 5.1 and 5.99 and 6.59
Swiss albino mice [3]; 90 minutes
  Hot plate analysis (adrenergic), individual values: 4.1 and 4.82 and 5.34

## O=C(CCc1ccc(O)cc1)c1c(O)cc(O)cc1O [Compound 2, 2-4-4-6-tetrahydroxy-dihydrochalcone]
5-LOX
  inhibition at 62.5 µg/mL: 21.1 ± 0.9%
  inhibition at 250 µg/mL: 31.1 ± 0.2%
  inhibition at 500 µg/mL: 36.7 ± 0.67%
  inhibition at 1000 µg/mL: 41.43 ± 0.38%
Swiss albino mice [1]; 10mg, listed as Comp 2
  Writhes, individual values: 59.2 and 60.82 and 60.05
Swiss albino mice [1]; 20mg, listed as Comp 2
  Writhes, individual values: 55.1 and 54.26 and 56.7
Swiss albino mice [1]; 25mg, listed as Comp 2
  Writhes, individual values: 49.8 and 50.8 and 49.1
Swiss albino mice [1]; 50mg, listed as Comp 2
  Writhes, individual values: 41.02 and 43.67 and 40.12
Swiss albino mice [1]; dose 10 mg/kg
  % analgesic activity (writhing inhibition): 1.86^ns %
Swiss albino mice [1]; dose 10 mg/kg, listed as compound 2, 10 mg/kg
  % analgesic activity (writhing inhibition): 01.86%
Swiss albino mice [1]; dose 10 mg/kg, writhes counted 5-30 min after acetic acid, 10 mg/kg
  Mean writhes: 60.02 ± 0.90
Swiss albino mice [1]; dose 10 mg/kg, writhes counted 5-30 min after acetic acid, listed as Comp 2, 10 mg/kg
  Mean writhes: 60.0233
Swiss albino mice [1]; dose 20 mg/kg
  % analgesic activity (writhing inhibition): 9.49^ns %
  Mean writhes: 55.35 ± 0.87
Swiss albino mice [1]; dose 20 mg/kg, listed as Comp 2, 20 mg/kg
  Mean writhes: 55.3533
Swiss albino mice [1]; dose 25 mg/kg
  % analgesic activity (writhing inhibition): 18.41^* %
  Mean writhes: 49.90 ± 0.20
Swiss albino mice [1]; dose 25 mg/kg, listed as Comp 2, 25 mg/kg
  Mean writhes: 49.9
Swiss albino mice [1]; dose 50 mg/kg
  % analgesic activity (writhing inhibition): 31.98^*** %
  Mean writhes: 41.60 ± 1.24
Swiss albino mice [1]; dose 50 mg/kg, listed as Comp 2, 50 mg/kg
  Mean writhes: 41.6033
Swiss albino mice [2]; at 15, listed as Comp-2
  Reaction time on hot plate, individual values: 3.02 and 3.9 and 4.6
Swiss albino mice [2]; at 30, listed as Comp-2
  Reaction time on hot plate, individual values: 4.1 and 4.17 and 5.3
Swiss albino mice [2]; at 45, listed as Comp-2
  Reaction time on hot plate, individual values: 3.12 and 2.58 and 4.1
Swiss albino mice [2]; at 60, listed as Comp-2
  Reaction time on hot plate, individual values: 2.3
Swiss albino mice [2]; at 90, listed as Comp-2
  Reaction time on hot plate, individual values: 2.06 and 2.49 and 3.99
Swiss albino mice [2]; at 15 min
  Reaction time on the hot plate: 03.84 ± 0.03 s
Swiss albino mice [2]; at 15 min, listed as Comp-2
  Reaction time on the hot plate: 3.84 s
Swiss albino mice [2]; at 30 min
  Reaction time on the hot plate: 04.52 ± 0.09 s
Swiss albino mice [2]; at 30 min, listed as Comp-2
  Reaction time on the hot plate: 4.523 s
Swiss albino mice [2]; at 45 min
  Reaction time on the hot plate: 3.27 ± 0.48 s
Swiss albino mice [2]; at 45 min, listed as Comp-2
  Reaction time on the hot plate: 3.267 s
Swiss albino mice [2]; at 60 min
  Reaction time on the hot plate: 3.18 ± 0.34 s
Swiss albino mice [2]; at 60 min, listed as Comp-2
  Reaction time on the hot plate: 3.183 s
Swiss albino mice [2]; at 90 min
  Reaction time on the hot plate: 2.85 ± 0.29 s
Swiss albino mice [2]; at 90 min, listed as Comp-2
  Reaction time on the hot plate: 2.847 s
Swiss albino mice [3]; 30 Minutes
  Hot plate analysis (adrenergic), individual values: 3.19 and 3.88 and 3.2
Swiss albino mice [3]; 45 Minutes
  Hot plate analysis (adrenergic), individual values: 4.32 and 3.32 and 3.1
Swiss albino mice [3]; 15 minutes
  Hot plate analysis (adrenergic), individual values: 2.32 and 1.9 and 3.49
Swiss albino mice [3]; 60 minutes
  Hot plate analysis (adrenergic), individual values: 3.2 and 2.9 and 4.02
Swiss albino mice [3]; 90 minutes
  Hot plate analysis (adrenergic), individual values: 3.1 and 2.75 and 3.61
